{"source": "patent US20110305637A1", "about": "“RADIOLABELLED PDE10 LIGANDS” (Janssen Pharmaceutica N.V., priority 2009, published 2011)", "experiment": "Brain metabolite analysis (cerebrum, cerebellum, not perfused)", "assay_type": "in vivo, rat", "settings": "60 min p.i.", "method": "(§1) From the same animals that were used for plasma analysis, brain was also dissected and rinsed with saline (Mini Plasco®, Braun, Melsungen, Germany) to rinse off the blood. Cerebrum and cerebellum were collected separately and homogenized in 3 mL and 2 mL of acetonitrile, respectively, for about 3 min. A volume of 1 mL of this homogenate was diluted with an equal volume of water and a part of this homogenate was filtered through 0.22 μm filter (Millex®-GV, Millipore, Ireland). About 0.5 mL of the filtrate was spiked with 5 μL of non-radioactive B-1 solution (1 mg/mL) and then injected on to HPLC, which was connected with an XBridge™ column (C18, […], 3 mm×100 mm, Waters) eluted with mixtures of 0.05 M sodium acetate buffer pH 5.5 and acetonitrile (60:40 v/v) at a flow rate of 0.8 mL/min. Similar to the plasma analysis, the HPLC eluate was collected as 1-mL fractions after passing through UV detector, and the radioactivity in the fractions was measured using the automated gamma counter.\n(§2) Based on their higher hydrophilicity we can expect that these radiometabolites may not cross the blood brain barrier (BBB). However, in order to rule out the presence or entry of these metabolites to the brain, we have also analyzed cerebrum and cerebellum samples of rats after isolation and subsequent homogenization at 60 min after injection of [^18F]B-1 (n=2).\nas §1, with “of non-radioactive B-2 solution (1” for “of non-radioactive B-1 solution (1”, “and acetonitrile (65:35 v/v) at” for “and acetonitrile (60:40 v/v) at”, “passing through the UV detector,” for “passing through UV detector,”\nas §2, with “BBB.” for “the blood brain barrier (BBB).”, “[^18F]B-2” for “[^18F]B-1”"}
{"smiles": "[18F]CCCn1cc(-c2ccncc2)c(-c2ccc(OCc3ccc4ccccc4n3)cc2)n1", "note": "[[^18F]B-1]", "values": [{"measurement": "Relative percentage of apolar metabolite(s)", "setting": "rat cerebellum", "result": "1.4 ± 0.9", "unit": "%"}, {"measurement": "Relative percentage of polar metabolite(s)", "setting": "rat cerebellum", "result": "15.3 ± 1.8", "unit": "%"}, {"measurement": "Relative percentage of apolar metabolite(s)", "setting": "rat cerebrum", "result": "0.3 ± 0.0", "unit": "%"}, {"measurement": "Relative percentage of polar metabolite(s)", "setting": "rat cerebrum", "result": "6.6 ± 2.9", "unit": "%"}]}
